We go through 1 compound from patent US9884047B1, “Method of treating lung cancer” (Macau University of Science and Technology, priority 2017, dated 2018).

Each structure is given as a SMILES string.

As usually defined, the IC50 is the concentration that inhibits the measured activity by half. The low end stands for inhibition by little substance, the high end for a need for much substance.

Holding throughout (format): cell-based
For series [1], the system named is A549 NSCLC cells. Nature of the series: MTT cytotoxicity assay. On the procedure: (§1) H2122, A549 and H358 non-small cell lung cancer (NSCLC) cells were purchased from ATCC and cultivated with Roswell Park Memorial Institute (RPMI) 1640 medium supplemented with 10% fetal bovine serum (Gibco, Big Cabin, Oklahoma, ME, USA), 100 units/mL penicillin and 100 μg/mL streptomycin (Gibco, Big Cabin, Oklahoma, ME, USA). All the cells were cultivated at 37° C. in a humidified atmosphere of 5% CO2.
(§2) Cells were seeded in a 96-well microplate with 3000, 4000 or 5000 cells/well confluence and cultured overnight for cell adhesion. Different concentrations of compound K017-0105 were added to the microplates, and the microplates were incubated for 24, 48 or 72 hours (h). Each concentration of compound K017-0105 was repeated in triplicate. 10 μL 3-(4,5-Dimethylthiazol-2-yl)-2,5-Diphenyltetrazolium Bromide (MTT) (5 mg/mL) solution was added to every well. After incubating for 4 h, 100 μL dimethyl sulfoxide (DMSO) was added to each well. After shaking for 15 minutes, the absorbance of the microplate was measured at 570 nm (absorbance) and 650 nm (reference) by a microplate reader (Tecan, Morrisville, N.C., USA).
Background: Tetrazolium dyes change colour on reduction, which living cells bring about.

Series [2] deals with H2122 NSCLC cells. Nature of the series: MTT cytotoxicity assay. The protocol:
as §1, §2

Series [3] concerns H358 NSCLC cells. Description: MTT cytotoxicity assay. The protocol:
as §1, §2

Series [4] deals with A549 NSCLC cells. Description: Apoptosis analysis (Annexin V/PI flow cytometry). Conditions: A549 cells, 0, 5, 10, 20 and 40 μM for 24 h. On the procedure:
(§3) H2122, A549 and H358 NSCLC cells were plated in a 6-well plate with 2.0×10^5 cells/well and cultured overnight for attachment. After treatment with compound K017-0105 at 0, 5, 10, 20, 40 μM for 24 h, all cells were harvested by trypsinization and centrifuged at room temperature at 1000 rotations per minute (RPM) for 5 minutes. Cells were re-suspended in 100 μL 1× binding buffer and stained with Annexin V and propidium iodide (PI) staining solution for 15 minutes at room temperature in the dark. Apoptotic cells were quantitatively counted by a BD FACSAria III Flow Cytometer.
(§4) The ability of compound K017-0105 in inducing apoptosis in H2122, H358 and A549 NSCLC cells was examined. H2122, H358 and A549 NSCLC cells were treated with compound K017-0105 at different concentrations (0, 5, 10, 20 and 40 μM) for 24 h. These cells were stained with Annexin V-FITC/PI, and […] was detected by flow cytometry.
Background: In flow cytometry, cells or beads pass a laser one at a time.

Series [5] relates to H2122 NSCLC cells. Description: Apoptosis analysis (Annexin V/PI flow cytometry). Conditions: H2122 cells, 0, 5, 10, 20 and 40 μM for 24 h. The protocol:
as §3, §4

In series [6] the test system is H358 NSCLC cells. Description: Apoptosis analysis (Annexin V/PI flow cytometry). Conditions: H358 cells, 0, 5, 10, 20 and 40 μM for 24 h. The protocol: as §3, §4
Series [7] concerns normal CCD-19Lu lung cells. Description: MTT cytotoxicity assay. Conditions: 72 h. On the procedure: as §2
The next series deals with p-CRAF, p-Akt and p-ERK. Description: Western blot analysis of KRAS downstream signaling. Conditions: compared with untreated control cells. On the procedure: H2122, H358 and A549 NSCLC cells were rinsed with phosphate-buffered saline (PBS) and lysed in radioimmunoprecipitation assay (RIPA) lysis buffer (Beyotime, China) supplemented with a protease and phosphatase inhibitor cocktail (Thermo Scientific 78440, USA) once for 30 minutes. Cell lysates were centrifuged at 12,000 g for 10 minutes at 4° C. The supernatant was collected, and the protein concentration was calculated with a Bio-Rad detergent compatible (DC™) protein assay kit (Bio-Rad, Philadelphia, Pa., USA). 30 μg protein lysates were loaded and separated by 10% sodium dodecyl sulfate (SDS)-polyacrylamide gel electrophoresis and transferred to a nitrocellulose (NC) membrane. The membranes were incubated with the primary antibody (1:2000) and then with a fluorescence-conjugated secondary antibody (1:10000). Glyceraldehyde 3-phosphate dehydrogenase (GAPDH) was used as the loading control for normalization. The signal of the membranes was scanned with a LI-COR Odyssey Scanner (Belfast, Me., USA).
On the technique in general: Immunoblotting shows a protein as a band on a membrane.

The test system of another series is GTP-bound KRAS. Description: RAS-binding domain pull down assay. Conditions: 400 of compound, 24 hour treatment. The protocol: KRAS activation was determined using the rat sarcoma (RAS) activation assay kit (Millipore, 17-218) in accordance with the manufacturer's guidelines. Cell lysates were prepared using Mg2^+ Lysis/wash buffer (MLB). Samples were incubated with 10 μg RAS assay reagent and incubated for 45 minutes at 4° C. Agarose beads were pelleted by centrifugation and washed 3 times with MLB. Agarose beads were re-suspended in loading buffer. Samples were subjected to western blotting, as previously described, and the blots were probed using anti-K-Ras antibody (sc-30, Santa Cruz Biotechnology (SANTA)).

For the compound `O=C1Nc2ccccc2/C1=N\Nc1ccc(F)c(Cl)c1` [compound K017-0105], the IC50 with A549 NSCLC cells [1] (Homo sapiens, 72 h treatment, mean±SEM) amounted to 8.28 ± 2.64 µM; in the series with H2122 NSCLC cells [2] (Homo sapiens, NCI-H2122, 72 h treatment, mean±SEM), 7.19 ± 1.6 µM; with H358 NSCLC cells [3] (Homo sapiens, NCI-H358, 72 h treatment, mean±SEM), 8.18 ± 1.29 µM. Further, the cytotoxicity result with A549 NSCLC cells [1] (MTT, 72 h) was “significant cytotoxicity”; in the series on H2122 NSCLC cells [2] (MTT, 72 h), “significant cytotoxicity”; in the series with H358 NSCLC cells [3] (MTT, 72 h), “significant cytotoxicity”; in series [7] it was “no cytotoxicity”. Further, the apoptosis entry with A549 NSCLC cells [4], with H2122 NSCLC cells [5] and in the series on H358 NSCLC cells [6] was “significantly induced apoptosis” each time. Further, the “levels of p-CRAF, p-Akt and p-ERK” value in the series with p-CRAF, p-Akt and p-ERK (A549 NSCLC cells) was “decreased”; in the series with p-CRAF, p-Akt and p-ERK (H358 NSCLC cells) it was “decreased”; with p-CRAF, p-Akt and p-ERK (H2122 NSCLC cells), “decreased”. Besides, the “level of GTP-bound KRAS” value in the series with GTP-bound KRAS (A549 NSCLC cells), with GTP-bound KRAS (H358 NSCLC cells) and with GTP-bound KRAS (H2122 NSCLC cells) was “inhibited” in each case.
